From patent publication US20020026052A1, “3-cyanoquinolines, 3-cyano-1,6-naphthyridines, and 3-cyano-1,7-naphthyridines as protein kinase inhibitors” (American Home Products Corporation, priority 2000, published 2002)
“And” between values parts separate entries of the source, which are not always exact repeats. Equal entries are not always repeated.

How the values were obtained:
[1] = molecular target: Rat2 fibroblasts stably transformed with v-Src/Hu c-Src fusion gene (Homo sapiens, UniProt P12931, cells depend on it, form not given); test: Anchorage Independent Src-transformed Fibroblast Proliferation Assay; type: cell-based, Rat; conditions: suspension growth, MTS reagent on Day 5; read-out: anch-indep src-tx fib IC50
Rat2 fibroblasts stably transformed with v-Src/Hu c-Src fusion gene, sequence (P12931 whole entry, change not shown, the tested form may be a part): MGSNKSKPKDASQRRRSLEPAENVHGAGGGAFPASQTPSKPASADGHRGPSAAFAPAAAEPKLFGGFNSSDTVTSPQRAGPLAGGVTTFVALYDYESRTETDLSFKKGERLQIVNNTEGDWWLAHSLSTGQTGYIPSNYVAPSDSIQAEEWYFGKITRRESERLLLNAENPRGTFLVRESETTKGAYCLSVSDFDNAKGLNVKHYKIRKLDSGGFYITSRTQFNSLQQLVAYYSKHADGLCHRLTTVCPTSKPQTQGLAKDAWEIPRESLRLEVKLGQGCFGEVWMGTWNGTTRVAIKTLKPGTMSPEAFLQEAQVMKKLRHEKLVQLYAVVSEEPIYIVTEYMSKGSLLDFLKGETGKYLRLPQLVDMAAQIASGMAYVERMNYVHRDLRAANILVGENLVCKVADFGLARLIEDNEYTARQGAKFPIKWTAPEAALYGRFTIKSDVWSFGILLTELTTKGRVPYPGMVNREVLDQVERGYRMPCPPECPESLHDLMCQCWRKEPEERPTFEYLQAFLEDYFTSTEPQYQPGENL
Procedure: Anchorage Independent Src-transformed Fibroblast Proliferation Assay
Rat2 fibroblasts stably transformed with a plasmid containing a CMV promotor controlled v-Src/Hu c-Src fusion gene in which the catalytic domain of human c-Src was inserted in place of the v-Src catalytic domain in the v-Src gene are used for the measurement of src dependent suspension growth. […] Multiple entries for a given compound indicate that it was tested multiple times.

| melting point | GI50 [1] | SMILES |
| --- | --- | --- |
| 70 to 72 °C | > 10000 nM | N#Cc1cnc2cc(C=CCCCN3CCOCC3)ccc2c1Nc1ccc(Cl)cc1Cl (mixture of isomers) [Example 12, 4-(2,4-Dichloroanilino)-7-[(E/Z)-5-(4-morpholinyl)-1-pentenyl]-3-quinoline-carbonitrile] |
| 128 to 130 °C | > 10000 nM | N#Cc1cnc2cc(C=CCCCCN3CCOCC3)ccc2c1Nc1ccc(Cl)cc1Cl (mixture of isomers) [Example 16, 4-(2,4-Dichloroanilino)-7-[(E/Z)-6-(4-morpholinyl)-1-hexenyl]-3-quinolinecarbonitrile] |
| 224 to 229 °C | 200 nM | COc1cc(Nc2c(C#N)cnc3cc(-c4ccc(C5OCCO5)o4)ccc23)c(Cl)cc1Cl [Example 5, 4-(2,4-dichloro-5-methoxyanilino)-7-[5-(1,3-dioxolan-2-yl)-2-furyl]-3-quinolinecarbonitrile] |
| > 250 °C | 1600 nM | COc1cc(Nc2c(C#N)cnc3cc(-c4ccc(C=O)o4)ccc23)c(Cl)cc1Cl [Example 6, 4-(2,4-Dichloro-5-methoxyanilino)-7-(5-formyl-2-furyl)-3-quinolinecarbonitrile] |
| 168 to 169 °C | 2700 nM | N#Cc1cnc2cc(-c3ccc(CCN4CCOCC4)s3)ccc2c1Nc1ccc(Cl)cc1Cl [Example 9, 4-(2,4-Dichloroanilino)-7-{5-[2-(4-morpholinyl)ethyl]-2-thienyl}-3-quinoline-carbonitrile] |
| 182 to 184 °C | 900 nM | CCN1CCN(Cc2cc(-c3ccc4c(Nc5ccc(Cl)cc5Cl)c(C#N)cnc4c3)cs2)CC1 [Example 10, 4-(2,4-Dichloroanilino)-7-{5-[(4-ethyl-1-piperazinyl)methyl]-3-thienyl}-3-quinolinecarbonitrile] |
| 131 to 133 °C | > 10000 nM | N#Cc1cnc2cc(C#CCCCN3CCOCC3)ccc2c1Nc1ccc(Cl)cc1Cl [Example 11, 4-(2,4-Dichloroanilino)-7-[5-(4-morpholinyl)-1-pentynyl]-3-quinolinecarbonitrile] |
| 118 to 120 °C | 1510 nM and 1590 nM | N#Cc1cnc2cc(-c3ccc(CN4CCOCC4)o3)ccc2c1Nc1ccc(Cl)cc1Cl [Example 13, 4-(2,4-Dichloroanilino)-7-[5-(4-morpholinylmethyl)-2-furyl]-3-quinolinecarbonitrile] |
| 144 to 145 °C | > 10000 nM | CN(C)CC#Cc1ccc2c(Nc3ccc(Cl)cc3Cl)c(C#N)cnc2c1 [Example 15, 4-(2,4-dichloroanilino)-7-[3-(dimethylamino)-1-propynyl]-3-quinolinecarbonitrile] |
| 118 to 125 °C | 310 nM | N#Cc1cnc2cc(-c3cc(CN4CCOCC4)c(CN4CCOCC4)s3)ccc2c1Nc1ccc(Cl)cc1Cl [Example 17] |
| 118 to 125 °C | 40 nM and 30 nM | COc1cc(Nc2c(C#N)cnc3cc(-c4cc(CN5CCOCC5)c(CN5CCOCC5)s4)ccc23)c(Cl)cc1Cl [Example 20, 7-[4,5-Bis(4-morpholinylmethyl)-2-thienyl]-4-(2,4-dichloro-5-methoxyanilino)-3-quinolinecarbonitrile] |
| 188 °C (dec.) | 600 nM | COc1cc(Nc2c(C#N)cnc3cc(-c4ccc(CCCCN5CCOCC5)s4)ccc23)c(Cl)cc1Cl [Example 22, 4-(2,4-Dichloro-5-methoxyanilino)-7-{5-[4-(4-morpholinyl)butyl]-2-thienyl}-3-quinolinecarbonitrile] |
| 203 to 205 °C | 1300 nM and 930 nM | N#Cc1cnc2cc(-c3csc(CN4CCOCC4)c3)ccc2c1Nc1ccc(Cl)cc1Cl [Example 25, 4-(2,4-Dichloroanilino)-7-[5-(4-morpholinylmethyl)-3-thienyl]-3-quinolinecarbonitrile] |
| 148 to 150 °C | 160 nM and 200 nM | COc1cc(Nc2c(C#N)cnc3cc(-c4csc(CN5CCOCC5)c4)c(OC)cc23)c(Cl)cc1Cl [Example 36, 4-(2,4-Dichloro-5-methoxyanilino)-6-methoxy-7-[5-(4-morpholinylmethyl)-3-thienyl]-3-quinolinecarbonitrile] |
|  | 1590 nM and 1490 nM | COc1cc(Nc2c(C#N)cnc3cc(-c4ccc(CN5CCOCC5)cc4)c(OC)cc23)c(Cl)cc1Cl [Example 37, 4-(2,4-Dichloro-5-methoxyanilino)-6-methoxy-7-[4-(4-morpholinylmethyl)phenyl]-3-quinolinecarbonitrile] |
|  | 12700 nM and 10600 nM | COc1cc(Nc2c(C#N)cnc3cc(-c4cccc(CCN5CCOCC5)c4)c(OC)cc23)c(Cl)cc1Cl [Example 38, 4-(2,4-Dichloro-5-methoxyanilino)-6-methoxy-7-{3-[2-(4-morpholinyl)ethyl]phenyl}-3-quinolinecarbonitrile] |
| 121 to 126 °C | 1170 nM | COc1cc(Nc2c(C#N)cnc3cc(-c4ccc(CN5CCC[C@@H]5C(N)=O)o4)ccc23)c(Cl)cc1Cl [Example 47, (2 R)-1-({5-[3-cyano-4-(2,4-dichloro-5-methoxyanilino)-7-quinolinyl]-2-furyl}methyl)-2-pyrrolidinecarboxamide] |

| melting point | GI50 [1] | SMILES |
| --- | --- | --- |
| 174 to 177 °C (dec.) | 420 nM | COc1cc(Nc2c(C#N)cnc3cc(-c4ccc(C5OCCO5)s4)ccc23)c(Cl)cc1Cl [Example 51, 4-(2,4-dichloro-5-methoxyanilino)-7-[5-(1,3-dioxolan-2-yl)-2-thienyl]-3-quinolinecarbonitrile] |
| 182 to 183 °C | 250 nM | COc1cc(Nc2c(C#N)cnc3cc(-c4ccc(CN5CCOCC5)o4)ccc23)c(Cl)cc1Cl [Example 53, 4-(2,4-Dichloro-5-methoxyanilino)-7-[5-(4-morpholinylmethyl)-2-furyl]-3-quinolinecarbonitrile] |
| 216 to 220 °C | > 10000 nM | COc1ccc(/C=C/c2ccc3c(Nc4cc(OC)c(Cl)cc4Cl)c(C#N)cnc3c2)cc1 [Example 54, 4-(2,4-Dichloro-5-methoxyanilino)-7-[(E)-2-(4-methoxyphenyl)ethenyl]-3-quinolinecarbonitrile] |
|  | > 10000 nM | COc1cc(Nc2c(C#N)cnc3cc(-c4cscc4CN4CCOCC4)ccc23)c(Cl)cc1Cl [Example 65, 4-(2,4-Dichloro-5-methoxyanilino)-7-[4-(4-morpholinylmethyl)-3-thienyl]-3-quinolinecarbonitrile] |
|  | > 10000 nM | COc1cc(Nc2c(C#N)cnc3cc(-c4ccsc4CN4CCOCC4)ccc23)c(Cl)cc1Cl [Example 66, 4-(2,4-Dichloro-5-methoxyanilino)-7-[2-(4-morpholinylmethyl)-3-thienyl]-3-quinolinecarbonitrile] |
|  | 120 nM | COc1cc(Nc2c(C#N)cnc3cc(-c4cc(CN5CCOCC5)cs4)ccc23)c(Cl)cc1Cl [Example 68, 4-(2,4-Dichloro-5-methoxyanilino)-7-[4-(4-morpholinylmethyl)-2-thienyl]-3-quinolinecarbonitrile] |
|  | > 10000 nM | COc1cc(Nc2c(C#N)cnc3cc(-c4ccc(CNCCS(=O)(=O)c5ccccc5)n4C)ccc23)c(Cl)cc1Cl [Example 72, 4-(2,4-dichloro-5-methoxyanilino)-7-[1-methyl-5-({[2-(phenylsulfonyl)ethyl]amino}methyl)-1H-pyrrol-2-yl]-3-quinolinecarbonitrile] |
|  | 140 nM | COc1cc(Nc2c(C#N)cnc3cc(-c4ccc(CN5CCCCC5)s4)ccc23)c(Cl)cc1Cl [Example 78, 4-(2,4-Dichloro-5-methoxyanilino)-7-[5-(1-piperidinylmethyl)-2-thienyl]-3-quinolinecarbonitrile] |
|  | > 10000 nM | COc1cc(Nc2c(C#N)cnc3cc(C#Cc4ccccn4)ccc23)c(Cl)cc1Cl [Example 91, 4-(2,4-Dichloro-5-methoxyanilino)-7-[2-(2-pyridinyl)ethynyl]-3-quinolinecarbonitrile] |
|  | 560 nM | COc1cc(Nc2c(C#N)cnc3cc(-c4ccc[nH]4)ccc23)c(Cl)cc1Cl [Example 104, 4-(2,4-Dichloro-5-methoxyanilino)-7-(1H-pyrrol-2-yl)-3-quinolinecarbonitrile] |
|  | 1400 nM | COc1cc(Nc2c(C#N)cnc3cc(-c4cccc(CN5CCN(C)CC5)c4)ccc23)c(Cl)cc1Cl [Example 113, 4-(2,4-dichloro-5-methoxyanilino)-7-{3-[(4-methyl-1-piperazinyl)methyl]phenyl}-3-quinolinecarbonitrile] |
|  | > 10000 nM | COc1cc(Nc2c(C#N)cnc3cc(-c4ccccc4C=O)ccc23)c(Cl)cc1Cl [Example 114, 4-(2,4-Dichloro-5-methoxyanilino)-7-(2-formylphenyl)-3-quinolinecarbonittile] |
|  | > 10000 nM | COc1cc(Nc2c(C#N)cnc3cc(-c4ccccc4CN4CCOCC4)ccc23)c(Cl)cc1Cl [Example 115, 4-(2,4-Dichloro-5-methoxyanilino)-7-[2-(4-morpholinylmethyl)phenyl]-3-quinolinecarbonitrile] |
|  | > 10000 nM | COc1cc(Nc2c(C#N)cnc3cc(/C=C/c4ccccc4)ccc23)c(Cl)cc1Cl [Example 139, 4-(2,4-Dichloro-5-methoxyanilino)-7-[(E)-2-phenylethenyl]-3-quinolinecarbonitrile] |
|  | > 10000 nM | COc1cc(Nc2c(C#N)cnc3cc(C#Cc4ccccc4)ccc23)c(Cl)cc1Cl [Example 140, 4-(2,4-Dichloro-5-methoxyanilino)-7-(2-phenylethynyl)-3-quinolinecarbonitrile] |
|  | 170 nM | COc1cc(Nc2c(C#N)cnc3cc(-c4csc(CN5CCC(O)CC5)c4)ccc23)c(Cl)cc1Cl [Example 192, 4-(2,4-Dichloro-5-methoxyanilino)-7-{5-[(4-hydroxy-1-piperidinyl)methyl]-3-thienyl}-3-quinolinecarbonitrile] |
